In patent publication US20250326772A1, “MRGPRX2 ANTAGONISTS, PHARMACEUTICAL COMPOSITION INCLUDING MRGPRX2 ANTAGONIST, AND METHOD OF TREATING MRGPRX2-MEDIATED DISEASE OR DISORDER” (KYORIN PHARMACEUTICAL CO., LTD., priority 2024, published 2025) one finds IC50 data, which are given here for 58 compounds.

In the assay the target is T1, MRGPRX2 (Homo sapiens, UniProt Q96LB1).
T1 sequence (Q96LB1 1-330): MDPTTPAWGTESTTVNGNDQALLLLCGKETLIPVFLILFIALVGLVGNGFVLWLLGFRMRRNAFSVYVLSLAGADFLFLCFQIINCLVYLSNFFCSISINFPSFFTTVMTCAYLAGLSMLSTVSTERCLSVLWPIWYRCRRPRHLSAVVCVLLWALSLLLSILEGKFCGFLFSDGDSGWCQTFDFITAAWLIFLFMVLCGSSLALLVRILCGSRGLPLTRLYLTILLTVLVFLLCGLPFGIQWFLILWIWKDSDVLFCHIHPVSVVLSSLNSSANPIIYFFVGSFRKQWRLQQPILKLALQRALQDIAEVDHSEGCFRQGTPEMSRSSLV
As to the kind of experiment: MRGPRX2 reporter cell assay (NFAT-RE luciferase, Substance P stimulation). The format is cell-based. Conditions: U2OS cells stably transfected with MRGPRX2 and NFAT-RE luciferase reporter; Substance P at EC80; class symbols. On the procedure:
MRGPRX2 Reporter Cell Assays U2OS cells (ATCC, Manassas, VA) were stably transfected with MRGPRX2 expression clones (GeneCopoeia, Rockville, MD) and the pGL4.30 [luc2P/NFAT-RE/Hygro] reporter plasmid (Promega, Madison, WI). Clonal cells were maintained in Growth Media (McCoy's 5A, 10% FBS, 495 μg/ml hygromycin, 2 μg/ml puromycin, 100 units/ml penicillin, and 100 ug/ml streptomycin). The day before assay, cells were plated to white 384-well microplates at 3000 (MRGPRX2) cells/well in 10 ul Assay Media (McCoy's 5A, 2% charcoal dextran stripped FBS, 100 units/ml penicillin, and 100 ug/ml streptomycin) (Gibco, Thermo Fisher) and allowed to adhere overnight. The following day, serially diluted compound stocks were added directly to the cells (final DMSO concentration of 0.5%) and pre-incubated for 30 minutes at 37° C., 5% CO2. The final concentration of Substance P (Tocris, Minneapolis, MN, or PEPTIDE INSTITUTE, Osaka, Japan) corresponding to EC80 was added to stimulate the (MRGPRX2) cells. Cells were returned to the incubator for 6 hrs, after which 5 ul of ONE-GLO substrate (Promega) was added. Luminescence was read within 15 minutes (BioTek, Winooski, VT or infinite M1000Pro, Tecan Japan, Kanagawa, Japan). Percent inhibition for each test compound was calculated using the formula: […] where: • A=the luminescence count of the “test compound” well • B=the median luminescence count of the “Vehicle (0.5% DMSO)” wells • C═the median luminescence count of the “Vehicle (0.5% DMSO)+5 uM of substance P” wells The mean percent inhibition of each concentration of “test compound” was used to generate dose-response curves. IC50 values were calculated using a four-parameter logistic fit to the data using GraphPad Prism software. • +++: […]
(In general: In a reporter assay the amount or activity of a reporter protein is the signal.)

Turning to `Cn1cc(-c2c(-c3c(C(F)F)nn4c3OC[C@@H](NC(=O)[C@H]3C[C@H]3F)C4)[nH]c3ncccc23)c(OC(F)F)n1` (atropisomer, axis not shown) [EX. 548], the IC50 (commonly the point on the concentration scale where inhibition reaches its midpoint) is below 0.01 µM.
The figure for `COc1ccc(F)cc1-c1[nH]c2ncccc2c1-c1cc(C)ccc1F` [EX. 21, 2-(5-fluoro-2-methoxy-phenyl)-3-(2-fluoro-5-methyl-phenyl)-1H-pyrrolo[2,3-b]pyridine] is below 0.01 µM; for `COc1ccc(F)cc1-c1[nH]c2nccc(F)c2c1-c1ccccc1C#N` [EX. 27] it is below 0.01 µM.
The figure for `[2H]c1c([2H])c([2H])c(-c2[nH]c3nccc(F)c3c2-c2ccccc2C#N)c(O)c1[2H]` [EX. 45] is below 0.01 µM; for `N#Cc1ccccc1-c1c(-c2cnn3c2OCCC3)[nH]c2ncccc12` [EX. 50] it is below 0.01 µM; for `COc1ccsc1-c1[nH]c2ncccc2c1-c1ccccc1C#N` [EX. 53] it is below 0.01 µM.
For the compound `N#Cc1ccccc1-c1c(-c2cc(F)ccc2O)[nH]c2ncccc12` [EX. 54], the IC50 was below 0.01 µM.
The figure for `N#Cc1ccccc1-c1c(-c2c[nH]nc2C(F)F)[nH]c2ncccc12` [EX. 71] is below 0.01 µM; for `N#Cc1ccccc1-c1c(-c2csnc2C(F)F)[nH]c2ncccc12` [EX. 75] it is below 0.01 µM; for `N#Cc1ccccc1-c1c(-c2c[nH]nc2C(F)(F)F)[nH]c2nccc(F)c12` [EX. 77] it is below 0.01 µM.
The figure for `Cc1ccnc2[nH]c(-c3c[nH]nc3C(F)(F)F)c(-c3ccccc3C#N)c12` [EX. 78] is below 0.01 µM.
The figure for `COc1ccc(C#N)c(-c2c(-c3c[nH]nc3C(F)(F)F)[nH]c3ncccc23)c1` [EX. 80] is below 0.01 µM; for `N#Cc1ccccc1-c1c(-c2cn[nH]c2C(F)F)[nH]c2nccc(F)c12` [EX. 81] it is below 0.01 µM.
Turning to `[2H]c1cnc2[nH]c(-c3cn(C)nc3C(F)F)c(-c3cc(OC([2H])([2H])[2H])ccc3C#N)c2c1` [EX. 89], the IC50 is below 0.01 µM.
The figure for `N#Cc1ccccc1-c1c(-c2cnn3c2OCCC3)[nH]c2nccc(F)c12` [EX. 90] is below 0.01 µM.
The figure for `N#Cc1ccccc1-c1c(-c2c[nH]nc2C(F)(F)F)[nH]c2ncccc12` [EX. 94] is below 0.01 µM.
For `COc1ccc(C#N)c(-c2c(-c3c[nH]nc3C(F)F)[nH]c3ncccc23)c1` [EX. 96], the IC50 was below 0.01 µM.
The figure for `Cc1ccc(C#N)c(-c2c(-c3cn(C)nc3C(F)F)[nH]c3ncccc23)c1` [EX. 99] is below 0.01 µM; for `Cc1ccc(C#N)c(-c2c(-c3cnn4cccnc34)[nH]c3ncccc23)c1` [EX. 100] it is below 0.01 µM.
The figure for `Cc1ccc(C#N)c(-c2c(-c3c[nH]nc3C(F)F)[nH]c3ncccc23)c1` [EX. 101] is below 0.01 µM.
The figure for `COc1ccc(C#N)c(-c2c(-c3cc(F)ccc3OC)[nH]c3ncccc23)c1` [EX. 107, 2-(2-(5-fluoro-2-methoxyphenyl)-1H-pyrrolo[2,3-b]pyridin-3-yl)-4-methoxybenzonitrile] is below 0.01 µM.
`N#Cc1ccccc1-c1c(-c2ccccc2OCc2ccccc2)[nH]c2ncccc12` [EX. 109] registered an IC50 below 0.01 µM.
The figure for `COc1ccc(C#N)c(-c2c(-c3cn(C)nc3C(F)F)[nH]c3ncccc23)c1` [EX. 113] is below 0.01 µM; for `CCc1ccc(C#N)c(-c2c(-c3cn(C)nc3C(F)F)[nH]c3ncccc23)c1` [EX. 116] it is below 0.01 µM.
The figure for `N#Cc1ccccc1-c1c(-c2ccccc2O)[nH]c2ncccc12` [EX. 122] is below 0.01 µM; for `Cn1cc(-c2[nH]c3ncccc3c2-c2ccccc2C#N)c(C(F)(F)F)n1` [EX. 128] it is below 0.01 µM.
The figure for `Cc1ccc(F)c(-c2c(-c3cn(C)nc3C(F)F)[nH]c3ncccc23)c1` [EX. 133] is below 0.01 µM.
In the case of `COc1nsc(OC)c1-c1[nH]c2ncccc2c1-c1ccccc1C#N` [EX. 137], the IC50 is below 0.01 µM.
The figure for `COc1nn2cccnc2c1-c1[nH]c2ncccc2c1-c1ccccc1C#N` [EX. 141] is below 0.01 µM.
Regarding `Cn1cc(-c2[nH]c3ncccc3c2-c2ccccc2C#N)c(C(F)F)n1` [EX. 146], the IC50 is below 0.01 µM.
The figure for `CCn1cc(-c2[nH]c3ncccc3c2-c2ccccc2C#N)c(C(F)(F)F)n1` [EX. 147] is below 0.01 µM; for `N#Cc1ccccc1-c1c(-c2c[nH]nc2OC(F)F)[nH]c2ncccc12` [EX. 157] it is below 0.01 µM; for `Cc1ccc(C#N)c(-c2c(-c3c[nH]nc3OC(F)F)[nH]c3ncccc23)c1` [EX. 158] it is below 0.01 µM.
The figure for `[2H]C([2H])([2H])Oc1ccc(C#N)c(-c2c(-c3c(C)nn4c3OC(C)C4)[nH]c3ncccc23)c1` (stereo not shown) [EX. 167] is below 0.01 µM; for `[2H]C([2H])([2H])Oc1ccc(C#N)c(-c2c(-c3c(C)nn4c3NCC4)[nH]c3ncccc23)c1` [EX. 168] it is below 0.01 µM.
On to `[2H]C([2H])([2H])Oc1ccc(C#N)c(-c2c(-c3c(C)nn4cc[nH]c34)[nH]c3ncccc23)c1` [EX. 169], for which the IC50 was below 0.01 µM.
The figure for `[2H]C([2H])([2H])Oc1ccc(C#N)c(-c2c(-c3c(C)nn4c3OCCC4C)[nH]c3ncccc23)c1` (stereo not shown) [EX. 170] is below 0.01 µM; for `[2H]C([2H])([2H])Oc1ccc(C#N)c(-c2c(-c3c(OC)nn4cccnc34)[nH]c3ncccc23)c1` [EX. 175] it is below 0.01 µM; for `[2H]C([2H])([2H])Oc1ccc(C#N)c(-c2c(-c3c(C)nn4c3OCC[C@@H]4C)[nH]c3ncccc23)c1` [EX. 176] it is below 0.01 µM.
The figure for `[2H]C([2H])([2H])Oc1ccc(C#N)c(-c2c(-c3c(C4CC4)nn4c3OCCC4)[nH]c3ncccc23)c1` [EX. 177] is below 0.01 µM; for `[2H]C([2H])([2H])Oc1ccc(C#N)c(-c2c(-c3c(C)nn4c3OCC[C@H]4C)[nH]c3ncccc23)c1` [EX. 178] it is below 0.01 µM; for `[2H]C([2H])([2H])Oc1ccc(C#N)c(-c2c(-c3c(C)nn4cc(OC)cnc34)[nH]c3ncccc23)c1` [EX. 179] it is below 0.01 µM.
The compound `COc1ccc(C#N)c(-c2c(-c3c(C)nn4cc(O)cnc34)[nH]c3ncccc23)c1` [EX. 181] displayed an IC50 below 0.01 µM.
The figure for `COc1ccc(C#N)c(-c2c(-c3c(C)nn4cc(F)cnc34)[nH]c3ncccc23)c1` [EX. 182] is below 0.01 µM.
The figure for `COc1ccc(C#N)c(-c2c(-c3c(C(F)F)nn4c3OCC3(CC3)C4)[nH]c3ncccc23)c1` [EX. 183] is below 0.01 µM; for `[2H]C([2H])([2H])Oc1ccc(C#N)c(-c2c(-c3c(C)nn4c3OCC(O)C4)[nH]c3ncccc23)c1` (stereo not shown) [EX. 199] it is below 0.01 µM; for `[2H]C([2H])([2H])Oc1ccc(C#N)c(-c2c(-c3c(CC)nn4c3OCCC4)[nH]c3ncccc23)c1` [EX. 200] it is below 0.01 µM.
Compound `[2H]C([2H])([2H])Oc1ccc(C#N)c(-c2c(-c3c(C(F)F)nn4c3OCC(OC)C4)[nH]c3ncccc23)c1` (stereo not shown) [EX. 201] yielded an IC50 below 0.01 µM.
The figure for `[2H]C([2H])([2H])Oc1ccc(C#N)c(-c2c(-c3c(C(F)F)nn4c3OCC(O)C4)[nH]c3ncccc23)c1` (stereo not shown) [EX. 202] is below 0.01 µM; for `N#Cc1ccccc1-c1c(-c2c(C(F)F)nn3c2OCC(O)C3)[nH]c2ncccc12` (stereo not shown) [EX. 203] it is below 0.01 µM; for `[2H]c1cnc2[nH]c(-c3c(C)nn4c3OCCC4)c(-c3cc(OC([2H])([2H])[2H])ccc3C#N)c2c1` [EX. 216] it is below 0.01 µM.
The figure for `[2H]c1cnc2[nH]c(-c3c(C)nn4c3OCC4)c(-c3cc(OC([2H])([2H])[2H])ccc3C#N)c2c1` [EX. 218] is below 0.01 µM.
The figure for `COc1ccc(C#N)c(-c2c(-c3c(OC)nn4cccnc34)[nH]c3ncccc23)c1` [EX. 225] is below 0.01 µM; for `COc1ccc(C#N)c(-c2c(-c3c(C)nn4c3OCCC4)[nH]c3ncccc23)c1` [EX. 227] it is below 0.01 µM; for `COc1ccc(C#N)c(-c2c(-c3c(C)nn4c3OCC4)[nH]c3ncccc23)c1` [EX. 230] it is below 0.01 µM.
Take `[2H]C([2H])([2H])Oc1ccc(C#N)c(-c2c(-c3c(CF)nn4c3OCCC4)[nH]c3ncccc23)c1` [EX. 235]: the half-maximal inhibitory concentration (IC50) was below 0.01 µM.
The figure for `[2H]C([2H])([2H])Oc1ccc(C#N)c(-c2c(-c3c(C)nn4cccnc34)[nH]c3ncccc23)c1` [EX. 236] is below 0.01 µM; for `[2H]C([2H])([2H])Oc1ccc(C#N)c(-c2c(-c3c(C)nn4c3OCC4)[nH]c3ncccc23)c1` [EX. 238] it is below 0.01 µM.
